Test results taken from patent US10538547B2, “Mangiferin-6-O-calcium salt and preparation process thereof” (CHANGZHOU DEZE MEDICAL SCIENCE CO., LTD, priority 2016, dated 2020).
Where a name gives a salt, the structure may show the parent alone.

Tests used:
[1] = Acceleration test (accelerated stability); assay type: physicochemical; conditions: for Content / Morphology: 40°C±2°C, 75% RH±5% RH, sealed aluminum plastic bag
Protocol: (§1) Test method: A sample of the mangiferin-6-O-calcium salt raw material was sealingly packaged with an aluminum plastic composition bag, placed at 40° C.±2° C. and 75% RH±5% RH conditions, pieces of the sample were taken at the time of 0, 3 and 6 months and the morphology and content thereof were tested.

[2] = Room temperature long-term stability test; assay type: physicochemical; conditions: for Content / Morphology: 25°C±2°C, 60% RH±5% RH, sealed aluminum plastic bag
Protocol: as §1, with “at 25°” for “at 40°”, “and 60%” for “and 75%”, “0, 3, 6, 9” for “0, 3”, “and 12” for “and 6”

[3] = Physicochemical properties: solubility of the mangiferin-6-O-calcium salt
Description: The mangiferin-6-O-calcium salt has the following structural formula: […]

**Q.** With `O=c1c2cc(O)c(O)cc2oc2cc(O)c(C3OC(CO)C(O)C(O)C3O)c(O)c12` (stereo not drawn) [mangiferin-6-O-calcium salt] as the compound, how does the Content ([1]; batch 140618, 0 month) read?
**A.** 84.5%

**Q.** What about the Morphology ([1]; batch 140618, 0 month) of the same compound?
**A.** Light yellow-

**Q.** And the Content ([1]; batch 140618, 3 months)?
**A.** 84.5%

**Q.** What about the Morphology ([1]; batch 140618, 3 months) of the same compound?
**A.** Light yellow-

**Q.** And the Content ([1]; batch 140618, 6 months)?
**A.** 84.2%

**Q.** What about the Morphology ([1]; batch 140618, 6 months) of the same compound?
**A.** Light yellow-

**Q.** What about the “Stability conclusion, acceleration test” value ([1]; acceleration test condition for 6 months) of the same compound?
**A.** stable properties

**Q.** What about the Content ([2]; batch 140618, 0 month) of the same compound?
**A.** 84.5%

**Q.** And the Morphology ([2]; batch 140618, 0 month)?
**A.** Light yellow-green

**Q.** And the Content ([2]; batch 140618, 3 months)?
**A.** 84.5%

**Q.** What about the Morphology ([2]; batch 140618, 3 months) of the same compound?
**A.** Light yellow-green

**Q.** And the Content ([2]; batch 140618, 6 months)?
**A.** 84.3%

**Q.** And the Morphology ([2]; batch 140618, 6 months)?
**A.** Light yellow-

**Q.** What about the Content ([2]; batch 140618, 9 months) of the same compound?
**A.** 84.6%

**Q.** And the Morphology ([2]; batch 140618, 9 months)?
**A.** Light yellow-

**Q.** And the Content ([2]; batch 140618, 12 months)?
**A.** 84.2%

**Q.** What about the Morphology ([2]; batch 140618, 12 months) of the same compound?
**A.** Light yellow-

**Q.** And the “Stability conclusion, room temperature” value ([2]; room temperature condition for 12 months)?
**A.** stable properties

**Q.** What about the “Solubility in diluted hydrochloric acid solution” value ([3]; diluted hydrochloric acid solution) of the same compound?
**A.** slightly soluble

**Q.** And the “Solubility in hot water” value ([3]; hot water)?
**A.** soluble

**Q.** And the Solubility in water ([3]; water)?
**A.** slightly soluble
